Results taken from patent US20250032449A1, “TREATMENT OF RHEUMATOID ARTHRITIS” (SYNACT PHARMA APS, priority 2021, published 2025).
Read-outs that look alike come from different tables or passages of the source.

Legend:
[1] = system: aminotransferases (ALT or ALAT, AST); conditions: known effect of MTX; cited from earlier work
[2] = system: melanocytes; conditions: cited from earlier work
[3] = system: alanine aminotransferase/alanine transaminase (ALAT)
Excerpt: The study population will consist of newly diagnosed subjects with severe active RA (CDAI (Clinical disease activity score)>22) who are to start up-titration with methotrexate (MTX).
Sodium, potassium, chloride, calcium, glucose, creatinine, urea, albumin, unconjugated and total bilirubin, aspartate transaminase (AST), alanine transaminase (ALT), alkaline phosphatase (ALP), gamma-glutamyl transferase (GGT) and INR. The biochemistry blood samples will be taken at all visits. A serum β-HCG pregnancy test will be taken at screening.
Safety measures (AEs, SAEs, including laboratory abnormalities) will be registered during the whole study duration.
ALAT is commonly elevated following MTX treatment.

[4] = system: MC1R; conditions: cited from earlier work
[5] = system: macrophages; conditions: cited from earlier work
[6] = system: mouse model of arthritis; conditions: WO 2020/229297; cited from earlier work
[7] = system: peritonitis; conditions: oral, cited from earlier work
[8] = system: mouse primary macrophages; conditions: cited from earlier work
[9] = system: experimental inflammatory arthritis; conditions: oral; cited from earlier work
[10] = steady conditions, repeated dose Phase I
[11] = system: MC3R; conditions: cited from earlier work
[12] = system: newly diagnosed subjects with severe active RA (CDAI>22); assay: Phase IIa placebo-controlled study in early RA patients starting MTX: CDAI; conditions: for CDAI Baseline, group mean / CDAI Screening, group mean / CDAI Week 4, group mean / CDAI Week 2, group mean / CDAI Week 5, group mean / CDAI Difference / CDAI Difference in %: n = 31; for CDAI Baseline, group mean / CDAI Screening, group mean: before treatment; for CDAI Week 4, group mean: end of treatment; for CDAI Week 2, group mean: mid-treatment; for CDAI Week 5, group mean: one week follow-up after last dosage; for CDAI Difference / CDAI Difference in %: week 4 versus baseline
[13] = 50 mg AP1189 once daily plus MTX weekly, 2 weeks, n 32
[14] = 50 mg AP1189 once daily plus MTX weekly, 4 weeks (end of treatment), n 33
[15] = 50 mg AP1189 once daily plus MTX weekly, 5 weeks (one week after final dosage), n 32
[16] = 100 mg AP1189 once daily plus MTX weekly, 2 weeks, n 34
[17] = 100 mg AP1189 once daily plus MTX weekly, 4 weeks (end of treatment), n 33
[18] = 100 mg AP1189 once daily plus MTX weekly, 5 weeks (one week after final dosage), n 35
[19] = 100 mg dosage AP1189 (acetate salt), with MTX
[20] = 50 mg AP1189 (acetate salt) group
[21] = 50 mg AP1189 (acetate salt) once daily plus MTX (10-25 mg) weekly
[22] = 50 mg AP1189 (acetate salt) once daily plus MTX weekly
[23] = 100 mg AP1189 (acetate salt) group
[24] = 100 mg AP1189 (acetate salt) once daily plus MTX (10-25 mg) weekly
[25] = 100 mg AP1189 (acetate salt) once daily plus MTX weekly

For `CN(Cc1cnc2nc(N)nc(N)c2n1)c1ccc(C(=O)N[C@@H](CCC(=O)O)C(=O)O)cc1` [MTX, methotrexate], the “Effect on aminotransferases (transaminases)” value [1] is listed as “cause an increase in aminotransferases”.
In the case of “(E)-N-trans-{3-[1-(2-nitrophenyl)-1H-pyrrol-2-yl]-allylidene}-aminoguanidinium acetate [AP1189]”, the Melanogenesis [2] is given as “no melanogenesis was induced”, the “ALAT 2 weeks (share of subjects with clinical significant abnormal value)” value [3, 13] is given as 6.3% and the “ALAT CSA (Clinical significant abnormal value), number” value [3, 13] is given as 2. The “ALAT 4 weeks (share of subjects with clinical significant abnormal value)” value [3, 14] was 6.1%, the “ALAT CSA (Clinical significant abnormal value), number” value [3, 14] was 2 and the “ALAT 5 weeks (share of subjects with clinical significant abnormal value)” value [3, 15] was 6.3%. The “ALAT CSA (Clinical significant abnormal value), number” value [3, 15] was 2, the “Effect on MTX-associated elevation of transaminases” value ([3]; 50 mg dosage AP1189 (acetate salt), with MTX) was “did not reduce MTX-associated elevation of transaminases” and the “ALAT 2 weeks (share of subjects with clinical significant abnormal value)” value [3, 16] was 0.0%. The “ALAT CSA (Clinical significant abnormal value), number” value [3, 16] was 0, the “ALAT 4 weeks (share of subjects with clinical significant abnormal value)” value [3, 17] was 0.0% and the “ALAT CSA (Clinical significant abnormal value), number” value [3, 17] was 0. For the same molecule, the “ALAT 5 weeks (share of subjects with clinical significant abnormal value)” value [3, 18] was 0.0%, the “ALAT CSA (Clinical significant abnormal value), number” value [3, 18] was 0 and the “Effect on MTX-associated elevation of transaminases” value [3, 19] was “completely abolish the MTX-associated elevation of transaminases”. The ALAT change ([3]; dosage of 50 mg, with MTX, at 2 weeks, 4 weeks (EoT) and 5 weeks (FoV)) was “an increase in ALAT is observed”, the ALAT elevation ([3]; dosage of 100 mg AP1189, with MTX) was 0.0% and the ERK1/2 phosphorylation [4] was “cause ERK1/2 phosphorylation”. The “canonical cAMP generation” value [4] was “does not induce canonical cAMP generation”, the Cytokine release [5] was “reduce cytokine release” and the “Combined effect of AP1189 and methotrexate (MTX)” value [6] was “synergistic effect”. For the same molecule, the “Anti-inflammatory action in peritonitis” value [7] was “elicits anti-inflammatory actions”, the Resolution phase ([7]; peritonitis) was “accelerated the resolution phase” and the Efferocytosis [8] was “proefferocytic effect”. The “Macroscopic and histological parameters of joint disruption” value [9] was “significant reduction”, the “C Max (mean +/− SD, N = 9)” value ([10]; 50 mg once daily) was 180 ± 38 ng/mL and the “C Trough (Mean +/− SD, N = 9)” value ([10]; 50 mg once daily) was 46 ± 14 ng/mL. For the same molecule, the “C Max (mean +/− SD, N = 9)” value ([10]; 100 mg once daily) was 427 ± 76 ng/mL, the “C Trough (Mean +/− SD, N = 9)” value ([10]; 100 mg once daily) was 100 ± 25 ng/mL and the “C Max (mean +/− SD, N = 9)” value ([10]; 200 mg once daily) was 893 ± 198 ng/mL. The “C Trough (Mean +/− SD, N = 9)” value ([10]; 200 mg once daily) was 186 ± 45 ng/mL, the ERK1/2 phosphorylation [11] was “cause ERK1/2 phosphorylation” and the “canonical cAMP generation” value [11] was “does not induce canonical cAMP generation”. The “CDAI Baseline, group mean” value [12, 20] was 36.1, the “CDAI Screening, group mean” value [12, 20] was 35.6 and the “CDAI Week 4, group mean” value [12, 21] was 24.2. For the same molecule, the “CDAI Week 2, group mean” value [12, 21] was 29.9, the “CDAI Week 5, group mean” value [12, 21] was 22.9 and the “CDAI Difference” value [12, 22] was −11.9. The “CDAI Difference in %” value [12, 22] was 33%, the “CDAI Baseline, group mean” value [12, 23] was 39 and the “CDAI Screening, group mean” value [12, 23] was 38.9. The “CDAI Week 4, group mean” value [12, 24] was 23.9, the “CDAI Week 2, group mean” value [12, 24] was 28.9 and the “CDAI Week 5, group mean” value [12, 24] was 21.3. For the same molecule, the “CDAI Difference” value [12, 25] was −15.1, the “CDAI Difference in %” value [12, 25] was 39% and the “Efficacy in treating rheumatoid arthritis (CDAI)” value [12, 19] was “a reduction in CDAI”. For the same molecule, the “Effect in reducing CDAI” value ([12]; both tested dosages, 50 mg and 100 mg, with MTX) was “significant effect of AP1189 in reducing CDAI”.
